Reference: patent US20180354909A1, “SUBSTITUTED BENZIMIDAZOLIUM, PYRIDO-IMIDAZOLIUM, OR PYRAZINO-IMIDAZOLIUM COMPOUNDS AS CHEMOTHERAPEUTICS” (The Board of Regents of the University of Texas System, priority 2015, published 2018)

Tests used:
[1] = In vitro plasma half-life; assay type: in vitro ADME; settings: murine plasma; for half-life at 2 μM: mouse, plasma, read-out: Plasma T1/2 (converted)
Method: (§1) 12M11 (2 μM final concentration) was incubated with murine plasma and saline for 0-1440 minutes. Reactions were quenched with 200 μl (1:2) of methanol containing 0.1% formic acid and 200 ng/ml IS (IS final conc.=100 ng/mL). Samples were vortexed for 15 seconds, incubated at RT for 10 minutes and spun for 5 minutes at 13.2K rpm. Supernatant ([…]) was then transferred to an eppendorf tube and spun in a table top, chilled centrifuge for 5 minutes at 13.2K rpm. Supernatant (800 μL) was transferred to an HPLC vial (w/out insert). Analyzed by Qtrap 3200 mass spectrometer. These methods were used data obtained in the FIGS. 22C and 22F.

Mut6 [2] = test: Cytotox testing (CellTiter-Glo ATP assay) in Mut6 cells; assay type: cell-based, mouse; settings: CellTiter-Glo; for EC50: Mus musculus, 96 h, Mut6 cells, 4 days, read-out: Activity in Mut6 [EC50]
Method: (§2) Mut6 tumor cells were cultured in DMEM/F12 media supplemented by EGF (10 ng/mL), basic FGF (10 ng/mL), heparin (4 ug/mL), glucose (total 21 mM), NaHCO3 (113 μg/mL), Hepes (119 μg/mL), glutamine (2 mM), sodium pyruvate (1 mM), N2 supplement (ThermoFisher Gibco 17502-048, 100×, at 100-fold dilution), B27 supplement (ThermoFisher Gibco 12587-010, 50×, at 100-fold dilution), and penicillin/streptomycin (ThermoFisher, final 1%). Cells were maintained in Ultra-low attachment plate (Corning) as sphere-forming cells. For ATP assays and protein/RNA isolation, cells were plated into 96-well plates or 6-well plated that were coated with poly-lysine (Sigma P6407, 10 μg/mL in PBS, 4 hr at 37° C.) and laminin (ThermoFisher 23017015, ˜5 mg/L in PBS, overnight at 37° C.). MEFs and Astrocytes were cultured in DMEM supplemented with 10% FBS and 1% Penicillin/Streptomycin.
2,000 cells were plated into each well of 96-well plates. About 3 hours later, cells were treated by 12M11, at 800-fold dilution (4 mM stock was diluted into 5 μM final concentration). […] CellTiter-Glo assay (Promega) was performed according to manufacturer's instructions, by adding 20 μL of reagent into each well. Luminescence signal was detected by the PolarStar plate reader (BMG Labtech). Experiments were performed in quadruplicate, and results are presented with mean average −/+ standard deviation. EC505 were calculated by GraphPad Prism6 software.
The compounds described herein were tested using a cell-based cytotoxicity assay against neuronal stem cells in Mut6, which is a mouse glioblastoma model cell line.

[3] = Buffer (saline) stability; assay type: physicochemical
Method: as §1

Murine S9 half-life = assay type: in vitro ADME; settings: mouse, S9 fraction; murine S9, Phase I cofactors; read-out: S9 T1/2
Method: 22D. […] (2 mM in DMSO) was incubated with Murine S9 (Lot KWB) fraction and Phase I (NADPH Regenerating System) cofactors for 0-240 minutes. Reactions were quenched with 1 mL (1:1) of methanol containing 0.2% formic acid and 100 ng/ml IS (IS final conc.=50 ng/mL). Samples were vortexed for 15 seconds, incubated at RT for 10 minutes and spun for 5 minutes at 2400 rpm. Supernatant (1 mL) was then transferred to an eppendorf tube and spun in a table top, chilled centrifuge for 5 minutes at 13.2K rpm. Supernatant (800 uL) was transferred to an HPLC vial (w/out insert). Analyzed by Qtrap 3200 mass spectrometer. These methods were used data obtained in the FIGS. 22A and 22D.

astrocytes = test: Cytotox testing (CellTiter-Glo) in astrocytes; assay type: cell-based
Method: as §2
2,000 cells were plated into each well of 96-well plates. About 3 hours later, cells were treated by 12M11, at 800-fold dilution (4 mM stock was diluted into 5 μM final concentration). Cells were further incubated for 4 days. CellTiter-Glo assay (Promega) was performed according to manufacturer's instructions, by adding 20 μL of reagent into each well. Luminescence signal was detected by the PolarStar plate reader (BMG Labtech). Experiments were performed in quadruplicate, and results are presented with mean average −/+ standard deviation. EC505 were calculated by GraphPad Prism6 software.

Phospho-S6 = test: p-S6 western blot in Mut6 cells; assay type: cell-based, mouse
Method: (§3) Mut6 tumor cells and MEFs were treated by DMSO or 1 μM 12M11 for the indicated times. Cell lysate was prepared by RIPA buffer with phosphatase inhibitor (Thermo) and protease inhibitor (Roche). Antibodies are purchased from Santa Cruz (ATF4), Cell Signaling (pS6, S6, AMPK, and pAMPK), and Millipore (Gapdh).

ATF4 = ATF4 western blot in Mut6 cells; assay type: cell-based, mouse
Method: as §3

MEF = test: Change in ATP levels in MEF cells; assay type: cell-based, mouse; settings: 2-6 hr
Method: (§4) Mut6 tumor cells or MEFs were plated into 96-well plates. One day later, Oligomyin (2 μM), Rotenone (200 nM), or 12M11 (1 μM) were added into each well and then ATP levels were measured by Cell-Titer Glo (Promega) after 2 hr, 4 hr, or 6 hr incubation. Each data is mean of six replicates with ± standard deviation.

Mut6 [4] = test: Change in ATP levels in Mut6 cells; assay type: cell-based, mouse; settings: Mut6, 2-6 hr
Method: as §4

| Structure (SMILES) | half-life at 2 μM [1] [min] | EC50 (Mut6 [2]) [nM] | Buffer Stability [3] [%] | further results |
| --- | --- | --- | --- | --- |
| CC(C)[C@@H]1CC[C@@H](C)CC1OC(=O)Cn1c(-c2ccccc2)[n+](C)c2ccccc21.[I-] (stereo partly shown) | 10.6 | 100 to 1000 | 97 | – |
| COc1ccc(-c2n(CC(=O)OC3C[C@H](C)CC[C@H]3C(C)C)c3ccccc3[n+]2C)cc1.[I-] (stereo partly shown) | 15 | 100 to 1000 | 100 | – |
| CCc1n(CC(=O)O[C@@H]2C[C@H](C)CC[C@H]2C(C)C)c2ccccc2[n+]1C.[Cl-] | – | 100 to 1000 | 100 | Plasma T1/2 [1]: < 4 min |
| CC(C)[C@@H]1CC[C@@H](C)CC1OC(=O)Cn1c(-c2ccccc2[N+](=O)[O-])[n+](C)c2ccccc21.[I-] (stereo partly shown) | 47 | 100 to 1000 | 100 | half-life (Murine S9 half-life): > 240 min |
| CC(C)[C@@H]1CC[C@@H](C)CC1OC(=O)Cn1c(-c2cccc(F)c2)[n+](C)c2ccccc21.[I-] (stereo partly shown) | 11 | 100 to 1000 | 100 | – |
| CC(C)[C@@H]1CC[C@@H](C)CC1OC(=O)Cn1c(-c2ccc(N(C)C)cc2)[n+](C)c2ccccc21.[I-] (stereo partly shown) | 8 | < 100 | 9 | – |
| CC(C)[C@@H]1CC[C@@H](C)CC1OC(=O)Cn1c(-c2ccc(O)cc2)[n+](C)c2ccccc21.[I-] (stereo partly shown) | 9.8 | 1000 to 5000 | 114 | half-life (Murine S9 half-life): 133 min |
| C=C(C)[C@H]1Cc2c(ccc3c2O[C@@H]2COc4cc(OC)c(OC)cc4[C@@H]2C3=O)O1 [rotenone] | – | – | – | activity against astrocytes (astrocytes): sensitive; Phospho-S6 protein level (Phospho-S6): suppression; ATF4 protein level (ATF4): induction; activity against Mut6 cells (Mut6 [2]): sensitive; ATP levels (% change from basal) (MEF): increase; ATP levels (% change from basal) (Mut6 [4]): decrease significantly |
| Cc1ccccc1-c1n(CC(=O)OC2C[C@H](C)CC[C@H]2C(C)C)c2ccccc2[n+]1C.[I-] (stereo partly shown) | 73 | 100 to 1000 | 100 | – |
| C[C@@H]1C[C@@H]([C@H](O)CC2CC(=O)NC(=O)C2)C(=O)[C@@H](C)C1 [cycloheximide, reference compound] | – | – | – | activity against astrocytes (astrocytes): sensitive; activity against Mut6 cells (Mut6 [2]): sensitive |
| CC(C)[C@@H]1CC[C@@H](C)CC1OC(=O)Cn1c(-c2cccc([N+](=O)[O-])c2)[n+](C)c2ccccc21.[I-] (stereo partly shown) | 330 | 1000 to 5000 | 133 | half-life (Murine S9 half-life): > 240 min |
| Cc1ccc(-c2n(CC(=O)OC3C[C@H](C)CC[C@H]3C(C)C)c3ccccc3[n+]2C)cc1.[I-] (stereo partly shown) | 24 | 100 to 1000 | 95 | – |
| CC[C@H]1/C=C/C=C/C[C@@H](C)[C@H](O)[C@@](C)(O)C(=O)[C@@H](C)[C@H](O)[C@@H](C)C(=O)[C@@H](C)[C@H](O)[C@@H](C)/C=C/C(=O)O[C@@H]2[C@H](C)[C@H](CC1)O[C@]1(CC[C@H](C)[C@H](C[C@@H](C)O)O1)[C@H]2C [oligomycin] | – | – | – | activity against astrocytes (astrocytes): sensitive; Phospho-S6 protein level (Phospho-S6): suppression; ATF4 protein level (ATF4): induction; activity against Mut6 cells (Mut6 [2]): sensitive; ATP levels (% change from basal) (MEF): increase; ATP levels (% change from basal) (Mut6 [4]): decrease significantly |
| CC(C)[C@@H]1CC[C@@H](C)CC1OC(=O)Cn1c(-c2cc(Cl)cc(Cl)c2)[n+](C)c2ccccc21.[I-] (stereo partly shown) | 39 | 100 to 1000 | 91 | – |
| CC(C)[C@@H]1CC[C@@H](C)CC1OC(=O)Cn1c(-c2ccc(N=[N+]=[N-])cc2)[n+](C)c2ccccc21.[I-] (stereo partly shown) | 26 | 100 to 1000 | 96 | half-life (Murine S9 half-life): 26 min |
| Cc1cc(-c2n([C@H](C)C(=O)OC3C[C@H](C)CC[C@H]3C(C)C)c3ccccc3[n+]2C)ccc1N(C)C (stereo partly shown) | – | < 100 | – | – |
